Data from patent US12655116B2, “Substituted isophthalic acid diamides” (Bayer Aktiengesellschaft, priority 2020, dated 2026).

Experiments:
ABUTH [1] = assay: Pre-emergence herbicidal action against ABUTH; assay type: in vivo, Abutilon theophrasti; details: for Pre-emergence action against ABUTH (herbicidal activity): 80 g/ha, scored visually after 3 weeks vs untreated controls (100% = plants have died, 0% = like control plants); for Pre-emergence action against ABUTH (herbicidal activity in percent): dosage 20 g/ha, scored visually after 3 weeks vs untreated controls, 100% = plants have died, 0% = like control plants
In short: (§1)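 Seeds sown in sandy loam, soil-covered; compound sprayed on soil surface pre-emergence. Application: WP/EC, 600–800 l/ha, 0.2% wetting agent. Readout: visual % damage at 3 weeks.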

ALOMY [2] = assay: Pre-emergence herbicidal action against ALOMY; assay type: in vivo, Alopecurus myosuroides; details: 80 g/ha, pre-emergence, scored visually after 3 weeks vs untreated controls (100% = plants have died, 0% = like control plants)
In short: as §1

AMARE [3] = assay: Pre-emergence herbicidal action against AMARE; assay type: in vivo, Amaranthus retroflexus
In short: as §1

AVEFA [4] = assay: Pre-emergence herbicidal action against AVEFA; assay type: in vivo, Avena fatua; details: for Pre-emergence action against AVEFA in %: 80 g/ha
In short: as §1

ECHCG [5] = assay: Pre-emergence herbicidal action against ECHCG; assay type: in vivo, Echinochloa crus-galli
In short: as §1

MATIN [6] = assay: Pre-emergence herbicidal action against MATIN; assay type: in vivo, Matricaria inodora
In short: as §1

PHBPU [7] = assay: Pre-emergence herbicidal action against PHBPU; assay type: in vivo, Pharbitis purpurea; details: dosage 80 g/ha
In short: as §1

SETVI [8] = assay: Pre-emergence herbicidal action against SETVI; assay type: in vivo, Setaria viridis
In short: as §1

VERPE [9] = assay: Pre-emergence herbicidal action against VERPE; assay type: in vivo, Veronica persica
In short: as §1

VIOTR [10] = assay: Pre-emergence herbicidal action against VIOTR; assay type: in vivo, Viola tricolor
In short: as §1

ABUTH [11] = assay: Post-emergence herbicidal action against ABUTH; assay type: in vivo, Abutilon theophrasti; details: visual assessment about 3 weeks after treatment vs untreated controls
In short: (§2)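 Sandy loam, greenhouse; treatment 2–3 weeks after sowing, one-leaf stage. Aqueous suspension or emulsion from WP/EC sprayed on foliage (600–800 l/ha, 0.2% wetting agent). Readout: visual % action, ~3 weeks.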

ALOMY [12] = assay: Post-emergence herbicidal action against ALOMY; assay type: in vivo, Alopecurus myosuroides; details: dosage 20 g/ha, visual assessment about 3 weeks after treatment vs untreated controls
In short: as §2

AMARE [13] = assay: Post-emergence herbicidal action against AMARE; assay type: in vivo, Amaranthus retroflexus; details: 20 g/ha, visual assessment about 3 weeks after treatment, 100% = plants have died, 0% = like control plants
In short: as §2

AVEFA [14] = assay: Post-emergence herbicidal action against AVEFA; assay type: in vivo, Avena fatua; details: 20 g/ha, visual assessment about 3 weeks after treatment, 100% = plants have died, 0% = like control plants
In short: as §2

ECHCG [15] = assay: Post-emergence herbicidal action against ECHCG; assay type: in vivo, Echinochloa crus-galli
In short: as §2

MATIN [16] = assay: Post-emergence herbicidal action against MATIN; assay type: in vivo, Matricaria inodora; details: dosage 20 g/ha
In short: as §2

PHBPU [17] = assay: Post-emergence herbicidal action against PHBPU; assay type: in vivo, Pharbitis purpurea; details: dosage 20 g/ha
In short: as §2

SETVI [18] = assay: Post-emergence herbicidal action against SETVI; assay type: in vivo, Setaria viridis
In short: as §2

VERPE [19] = assay: Post-emergence herbicidal action against VERPE; assay type: in vivo, Veronica persica; details: 20 g/ha
In short: as §2

VIOTR [20] = assay: Post-emergence herbicidal action against VIOTR; assay type: in vivo, Viola tricolor
In short: as §2

DIGSA [21] = assay: Pre-emergence herbicidal action against DIGSA; assay type: in vivo, Digitaria sanguinalis
In short: as §1

DIGSA [22] = assay: Post-emergence herbicidal action against DIGSA; assay type: in vivo, Digitaria sanguinalis; details: 20 g/ha
In short: as §2

[23] = 20 g/ha, scored visually after 3 weeks vs untreated controls, 100% = plants have died, 0% = like control plants
[24] = 80 g/ha, scored visually after 3 weeks vs untreated controls (100% = plants have died, 0% = like control plants)

Row | Structure (SMILES) | Pre-emergence action against ABUTH (herbicidal activity) (ABUTH [1]) | Pre-emergence action against ABUTH (herbicidal activity in percent) (ABUTH [1]) | Pre-emergence action against ALOMY (herbicidal activity) (ALOMY [2]) | Pre-emergence action against AMARE in % (AMARE [3]; [23]) | Pre-emergence action against AMARE in % (AMARE [3]; [24]) | Pre-emergence action against AVEFA in % (AVEFA [4]) | Pre-emergence action against ECHCG in % (ECHCG [5]; 80 g/ha) | Pre-emergence action against MATIN in % (MATIN [6]; dosage 20 g/ha) | Pre-emergence action against MATIN in % (MATIN [6]; dosage 80 g/ha) | Pre-emergence action against PHBPU in % (PHBPU [7]) | Pre-emergence action against SETVI in % (SETVI [8]; dosage 80 g/ha) | Pre-emergence action against VERPE in % (VERPE [9]; dosage 80 g/ha) | Pre-emergence action against VIOTR in % (VIOTR [10]; dosage 20 g/ha) | Pre-emergence action against VIOTR in % (VIOTR [10]; dosage 80 g/ha) | Post-emergence action against ABUTH in % (ABUTH [11]; dosage 20 g/ha) | Post-emergence action against ALOMY in % (ALOMY [12]) | Post-emergence action at 20 g/ha against AMARE in % (AMARE [13]) | Post-emergence action at 20 g/ha against AVEFA in % (AVEFA [14]) | Post-emergence action against ECHCG in % (ECHCG [15]; dosage 5 g/ha) | Post-emergence action against VERPE in % (VERPE [19]) | also measured
1 | CCn1nnnc1NC(=O)c1ccc(C(F)(F)F)c(C(=O)NCC2CC2)c1SC [Example 2-84] | 100% | 100% | 90% | 100% | 100% | 100% | 100% | 100% | 100% | 90% | 100% | 80% | 80% | 100% | 90% | 90% | 100% | 100% | 100% | 80% | Pre-emergence action against ECHCG in % (ECHCG [5]; 20 g/ha): 90%; Pre-emergence action against VERPE in % (VERPE [9]; dosage 20 g/ha): 80%; Post-emergence action against ECHCG in % (ECHCG [15]; dosage 20 g/ha): 100%; Post-emergence action against MATIN in % (MATIN [16]): 80%; Post-emergence action against PHBPU in % (PHBPU [17]): 80%; Post-emergence action against SETVI in % (SETVI [18]; dosage 5 g/ha): 80%; Post-emergence action against SETVI in % (SETVI [18]; dosage 20 g/ha): 100%; Post-emergence action against VIOTR in % (VIOTR [20]; 5 g/ha): 100%; Post-emergence action against VIOTR in % (VIOTR [20]; 20 g/ha): 100%
2 | CCn1nnnc1NC(=O)c1ccc(C(F)F)c(C(=O)NCC(F)F)c1SC [Example 2-92] | 100% | 100% | 90% | 100% | 100% | 80% | 100% | 100% | 100% | 90% | 100% | 100% | 90% | 100% | 90% | 80% | 100% | 80% | 80% | 90% | Pre-emergence action against AVEFA (AVEFA [4]; 20 g/ha, scored visually after 3 weeks, 100% = plants have died, 0% = like control plants): 80%; Pre-emergence action against SETVI in % (SETVI [8]; dosage 20 g/ha): 100%; Post-emergence action against ABUTH in % (ABUTH [11]; dosage 5 g/ha): 80%; Post-emergence action against ECHCG in % (ECHCG [15]; dosage 20 g/ha): 100%; Post-emergence action against MATIN in % (MATIN [16]): 80%; Post-emergence action against PHBPU in % (PHBPU [17]): 90%; Post-emergence action against SETVI in % (SETVI [18]; dosage 5 g/ha): 80%; Post-emergence action against SETVI in % (SETVI [18]; dosage 20 g/ha): 100%; Post-emergence action against VIOTR in % (VIOTR [20]; 5 g/ha): 100%; Post-emergence action against VIOTR in % (VIOTR [20]; 20 g/ha): 100%
3 | CCn1nnnc1NC(=O)c1ccc(C(F)F)c(C(=O)NCC(F)F)c1Br [Example 2-230] | 100% | 100% | – | 100% | 100% | 80% | 90% | 90% | 100% | 80% | 90% | 100% | 90% | 100% | 80% | 90% | 100% | 80% | – | 90% | Pre-emergence action against DIGSA in % (DIGSA [21]; dosage 20 g/ha): 100%; Pre-emergence action against DIGSA in % (DIGSA [21]; dosage 80 g/ha): 100%; Post-emergence action against SETVI in % (SETVI [18]; dosage 20 g/ha): 100%; Post-emergence action against DIGSA (DIGSA [22]): 90%
4 | CCn1nnnc1NC(=O)c1ccc(C(F)F)c(C(=O)NC(C)C2CC2)c1SC (stereo not shown) [Example 2-351] | 100% | 80% | 80% | 100% | 100% | 80% | 100% | 100% | 100% | 80% | 100% | 100% | 100% | 100% | 80% | 80% | 100% | 80% | 100% | 90% | Post-emergence action against ECHCG in % (ECHCG [15]; dosage 20 g/ha): 100%; Post-emergence action against MATIN in % (MATIN [16]): 80%; Post-emergence action against PHBPU in % (PHBPU [17]): 90%; Post-emergence action against VIOTR in % (VIOTR [20]; 5 g/ha): 100%; Post-emergence action against VIOTR in % (VIOTR [20]; 20 g/ha): 100%
